From patent US20260317304A1, “TEAD INHIBITORS AND METHODS OF USE” (Sporos BioDiscovery, Inc., priority 2022, published 2026)

Legend:
LOU-NH91 cells = assay: LOU-NH91 proliferation and cell viability assay (CTG); assay type: cell-based; settings: 216 hours
Procedure: LOU-NH91 cells were trypsinised, counted and plated at 1000 cells/well in 200 μl of growth media in 96 well flat bottom tissue culture treated plates. The plated cells were incubated overnight at 37° C., 5% CO2 before being treated with compounds in triplicate for each assay point. 50 μl of the serially diluted compound was added to each well giving a final DMSO concentration of 0.5% per well and a total volume of 250 μl per well. The treated cells were incubated for 216 hours (9 days) at 37° C., 5% CO2. Following compound treatment, the remaining viable cells were detected using the Promega CellTiter-Glo 2.0 assay as follows: 150 μl of media was removed from each of the wells to be assayed and 100 μl of room temperature CellTiter-Glo 2.0 reagent was added. The plate was placed on an orbital shaker at 500 rpm at room temperature for 2 minutes, and then incubated without shaking for a further 10 minutes at room temperature. 150 μl of cell lysate was removed from each well and dispensed into a single well of a white opaque 96 well plate. Luminescence at 545 nm was read using a BMG CLARIOstar plate reader. The luminescent signal was directly proportional to number of viable cells, the percent of viable cells relative to the DMSO control was then calculated for each assay point. Percent viability relative to DMSO control was plotted against compound concentration and a curve fitted with non-linear regression in GraphPad Prism software. EC50 and absolute IC50 values were calculated using GraphPad Prism software as follows: For EC50 values a non-constrained four-parameter logistic curve fit was used (Sigmoidal, 4PL, X is concentration). For Absolute IC50 values the baseline was constrained to Y=0 and top at 100 (Absolute IC50, X is concentration). Area Under the Curve (AUC): Prism computes area-under-the-curve by the trapezoidal method. The analysis sees a fitted curve as simply a series of connected XY points. Prism simply computes the area under the “curve” defined by connecting the points by straight lines. The units of the AUC are the units of the Y axis times units of the X axis. […]

MSTO-211H xenograft = assay: Mouse xenograft MSTO-211H tumors, study part 1; assay type: in vivo, BALB/c nude mice; settings: PO; for Tumor size (mean ± SEM) / T/C / TGI: BID; for Tumor Volume (mean ± SEM): BID (Table 16)
Text: This study evaluated the in vivo anti-tumor efficacy of test compounds in BALB/c nude mice for treatment of MSTO-211H xenograft of lung cancer.
• Species: Mus Musculus • Strain: BALB/c nude • Age: 6-8 weeks • Sex: female • Body weight: 18-22 g • Number of animals inoculated with tumor: 80 mice • Number of animals enrolled in the treatment: 36 mice • Number of unenrolled animals: 44 mice • Animal supplier: Beijing Vital River Biotechnology Experimental Animal Co. Ltd Certification number: 20170011010591
The MSTO-211H tumor cells were maintained in RPMI 1640 medium supplemented with 10% Fetal bovine serum and 1% Antibiotic-Antimycotic at 37° C. in an atmosphere of 5% CO2 in air. The tumor cells were routinely subcultured twice weekly by trypsin-EDTA. The cells growing in an exponential growth phase with 95% cell survival or above were harvested, and counted for tumor inoculation.
Each mouse was inoculated subcutaneously at the right flank with MSTO-211H tumor cells (5×10^6+50% matrigel/0.2 mL) for tumor development. Animals were marked with earrings with unique 6 significant figure number for identification. The treatments of part 1 were started on day 5 after cell inoculation when the average tumor volume reached 181 mm^3. The treatments of part 2 were started on day 16 after cell inoculation when the average tumor volume reached 254 mm^3. The treatments of part 3 were started on day 33 after cell inoculation when the average tumor volume reached 969 mm^3.
The major endpoint was to determine if the tumor growth could be delayed. Tumor volume was measured twice a week in two dimensions using a caliper, and the volume was expressed in mm^3 using the formula: V=0.5 a×b^2 where a and b are the long and short diameters of the tumor, respectively. The tumor size was then used for calculations of T/C value. The TGI value (in percent) or the T/C value (in percent) is an indication of antitumor effectiveness; T and C are the mean tumor volumes or tumor weights of the treated and control groups, respectively, on a given day.
TGI was calculated for each group using the formula: TGI (%)=[1−(Ti−T0)/(Vi−V0)]×100; Ti is the average tumor volume of a treatment group on a given day, T0 is the average tumor volume of the treatment group on the day of treatment start, Vi is the average tumor volume of the vehicle control group on the same day with Ti, and V0 is the average tumor volume of the vehicle group on the day of treatment start.
Relative T/C (%)=TRTV/CRTV×100 (RTV (%)=Vt/V0×100, Vt is the average tumor volume on a given day, V0 is the average tumor volume on the first day of treatment. TRTV is the RTV of a treatment group, and the CRTV is the RTV of the vehicle control group.)
The antitumor effectiveness of part 1 study was analyzed on PG-D31 when vehicle group reached 681 mm^3.
Summary statistics, including mean and the standard error of the mean (SEM), were provided for the tumor volume of each group at each time point.
Statistical analysis of difference in tumor volume among the groups was conducted on the data obtained at the end of the study.
One-tailed T test was performed to compare tumor volumes between two groups. All data are analyzed using GraphPad Prism 6.0. p<0.05 is considered to be statistically significant.

## Cn1cnc(-c2cc([C@@]3(C)CCNC3=O)ccc2Nc2ccc(C(F)(F)F)cc2)c1 (single isomer, unassigned) [Compound 5, 3-methyl-3-(3-(1-methyl-1H-imidazol-4-yl)-4-((4-(trifluoromethyl)phenyl)amino)phenyl)pyrrolidin-2-one]
LOU-NH91 cells
  EC50: < 200 nM
MSTO-211H xenograft; part 1, day 0, 12.5 mg/kg
  Tumor size (mean ± SEM): 181 ± 11 mm^3
MSTO-211H xenograft; part 1, day 3, 12.5 mg/kg
  Tumor size (mean ± SEM): 241 ± 31 mm^3
MSTO-211H xenograft; part 1, day 6, 12.5 mg/kg
  Tumor size (mean ± SEM): 230 ± 30 mm^3
MSTO-211H xenograft; part 1, day 10, 12.5 mg/kg
  Tumor size (mean ± SEM): 151 ± 18 mm^3
MSTO-211H xenograft; part 1, day 13, 12.5 mg/kg
  Tumor size (mean ± SEM): 117 ± 10 mm^3
MSTO-211H xenograft; part 1, day 17, 12.5 mg/kg
  Tumor size (mean ± SEM): 63 ± 13 mm^3
MSTO-211H xenograft; part 1, day 20, 12.5 mg/kg
  Tumor size (mean ± SEM): 72 ± 15 mm^3
MSTO-211H xenograft; part 1, day 23, 12.5 mg/kg
  Tumor size (mean ± SEM): 64 ± 7 mm^3
MSTO-211H xenograft; part 1, day 27, 12.5 mg/kg
  Tumor size (mean ± SEM): 79 ± 13 mm^3
MSTO-211H xenograft; part 1, day 31, 12.5 mg/kg
  T/C: 11.82%
  TGI: 120.17%
  Tumor size (mean ± SEM): 81 ± 18 mm^3
  Tumor Volume (mean ± SEM): 81 ± 18 mm^3

## Cn1cnc(-c2cc(C3(C)NC(=O)NC3=O)ccc2Nc2ccc(C(F)(F)F)cc2)c1 (single isomer, unassigned) [Compound 15, 5-methyl-5-(3-(1-methyl-1H-imidazol-4-yl)-4-((4-(trifluoromethyl)phenyl)amino)phenyl)imidazolidine-2,4-dione]
MSTO-211H xenograft; part 1, day 0, 12.5 mg/kg
  Tumor size (mean ± SEM): 181 ± 11 mm^3
MSTO-211H xenograft; part 1, day 3, 12.5 mg/kg
  Tumor size (mean ± SEM): 216 ± 27 mm^3
MSTO-211H xenograft; part 1, day 6, 12.5 mg/kg
  Tumor size (mean ± SEM): 175 ± 19 mm^3
MSTO-211H xenograft; part 1, day 10, 12.5 mg/kg
  Tumor size (mean ± SEM): 154 ± 5 mm^3
MSTO-211H xenograft; part 1, day 13, 12.5 mg/kg
  Tumor size (mean ± SEM): 111 ± 13 mm^3
MSTO-211H xenograft; part 1, day 17, 12.5 mg/kg
  Tumor size (mean ± SEM): 88 ± 12 mm^3
MSTO-211H xenograft; part 1, day 20, 12.5 mg/kg
  Tumor size (mean ± SEM): 105 ± 6 mm^3
MSTO-211H xenograft; part 1, day 23, 12.5 mg/kg
  Tumor size (mean ± SEM): 134 ± 10 mm^3
MSTO-211H xenograft; part 1, day 27, 12.5 mg/kg
  Tumor size (mean ± SEM): 166 ± 20 mm^3
MSTO-211H xenograft; part 1, day 31, 12.5 mg/kg
  T/C: 23.57%
  TGI: 104.12%
  Tumor size (mean ± SEM): 161 ± 12 mm^3
  Tumor Volume (mean ± SEM): 161 ± 12 mm^3

## Cn1nnc(-c2cc([C@]3(C)CCNC3=O)ccc2Nc2ccc(C(F)(F)F)cc2)n1 (stereo in doubt) [Compound 20, 3-methyl-3-(3-(2-methyl-2H-tetrazol-5-yl)-4-((4-(trifluoromethyl)phenyl)amino)phenyl) pyrrolidin-2-one]
MSTO-211H xenograft; part 1, day 0, 12.5 mg/kg
  Tumor size (mean ± SEM): 181 ± 7 mm^3
MSTO-211H xenograft; part 1, day 3, 12.5 mg/kg
  Tumor size (mean ± SEM): 183 ± 26 mm^3
MSTO-211H xenograft; part 1, day 6, 12.5 mg/kg
  Tumor size (mean ± SEM): 188 ± 52 mm^3
MSTO-211H xenograft; part 1, day 10, 12.5 mg/kg
  Tumor size (mean ± SEM): 117 ± 44 mm^3
MSTO-211H xenograft; part 1, day 13, 12.5 mg/kg
  Tumor size (mean ± SEM): 92 ± 28 mm^3
MSTO-211H xenograft; part 1, day 17, 12.5 mg/kg
  Tumor size (mean ± SEM): 66 ± 10 mm^3
MSTO-211H xenograft; part 1, day 20, 12.5 mg/kg
  Tumor size (mean ± SEM): 60 ± 13 mm^3
MSTO-211H xenograft; part 1, day 23, 12.5 mg/kg
  Tumor size (mean ± SEM): 59 ± 16 mm^3
MSTO-211H xenograft; part 1, day 27, 12.5 mg/kg
  Tumor size (mean ± SEM): 75 ± 18 mm^3
MSTO-211H xenograft; part 1, day 31, 12.5 mg/kg
  T/C: 8.81%
  TGI: 124.25%
  Tumor size (mean ± SEM): 60 ± 11 mm^3
  Tumor Volume (mean ± SEM): 60 ± 11 mm^3

## FC(F)(F)c1ccc(CN2CCC(C3CC(Br)=NO3)CC2)cc1 (stereo not drawn) [Compound 1-2, reference compound]
LOU-NH91 cells
  EC50: < 200 nM

## C=CC(=O)Nc1ccc(C)c(Oc2ccc(Cl)cc2)c1 [Compound 1-3, reference compound]
LOU-NH91 cells
  EC50: < 200 nM
